The values below come from PubChem BioAssay (NCI).

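Dose response: 5 concentrations. Exposure: 48 h. Format: 96-well plates. Endpoint: linear interpolation; highest concentration if not reached. TGI denotes the concentration required for complete inhibition of growth.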 Some results are limits rather than exact numbers.

Experiment in all cases: NCI tumour cell line growth inhibition, 48 h
Test [1] relates to SF-295 CNS.
Test [2] has as its system T-47D breast.
Test [3] concerns CAKI-1 renal.
Test [4] concerns SF-268 CNS.
Test [5] relates to OVCAR-4 ovarian.
Test [6] has as its system HOP-62 NSCLC.
In test [7] the test system is K-562 leukemia.
In test [8] the test system is MOLT-4 leukemia.
Test [9] deals with SK-MEL-28 melanoma.
Test [10] relates to SNB-75 CNS.
In test [11] the test system is MALME-3M melanoma.
In test [12] the test system is A498 renal.
The subject of test [13] is SF-539 CNS.

Take `CN1CCc2c([nH]c3ccccc23)C1`: the TGI in [1], in [2], in test [3], in [4], in test [5] and in test [6] was greater than 100 µM throughout. The TGI in test [7] was greater than 100 µM; in test [8], greater than 100 µM; in test [9], greater than 100 µM; in test [10], greater than 100 µM; in test [11], 86.8 µM.
For `CC(=O)OC1/C=C(\C)C(OC(C)=O)C/C=C(/C)CCC2C(/C=C/C1=O)C2(C)C` (stereo unspecified), the TGI in [1], in test [4], in [12], in test [5], in test [6] and in test [8] was greater than 100 µM throughout. The TGI in [13] is greater than 100 µM; in [9], greater than 100 µM; in [10], 93.1 µM; in test [11], greater than 100 µM.
For the molecule `COC(=O)/C=C(\C(=O)OC)C1C(=O)Oc2c(C)c(=O)c3ccccc3n21` (stereo unspecified), the TGI in [1], in test [2], in test [3], in test [4], in [5] and in test [6] was greater than 100 µM in each case. The TGI in test [7], in test [8], in test [13], in test [9], in [10] and in test [11] was greater than 100 µM in each case.
As to `CCCCCCNc1n[nH]c(=O)c2c1nnn2Cc1ccccc1`, the TGI in [1], in test [3], in test [5], in [6], in test [7] and in test [8] was greater than 100 µM each time. The TGI in test [9] and in [11] was greater than 100 µM each time.
Consider `CC1CC(OP(=O)(OCc2ccccc2)OCc2ccccc2)[C@@H](OCc2ccccc2)C(OCc2ccccc2)C1OCc1ccccc1` (stereo partly specified), for which the TGI in test [1], in [2], in [3], in test [4], in test [5] and in test [6] was greater than 100 µM in each case. In addition, the TGI in [7], in test [8], in [13], in test [9], in [10] and in test [11] was greater than 100 µM in each case.
For the molecule `O=c1sc2ccccc2n1CC1CS1` (stereo unspecified), the TGI in [1], in [3], in test [4], in test [5], in test [6] and in test [7] was greater than 100 µM each time. The TGI in test [8], in test [13], in [9] and in test [11] was greater than 100 µM throughout.
Turning to `CCCC(=O)NC(NC1CCCCC1)(C(=O)OCC)C(F)(F)F` (stereo unspecified), the TGI in test [1], in [2], in [4], in [5], in test [6] and in test [7] was greater than 100 µM throughout. For the same molecule, the TGI in test [8], in test [13], in test [9], in test [10] and in test [11] was greater than 100 µM in each case.
For `COc1cc2c(cc1OC)C(CC1=C(c3ccccc3)CN3CCc4cc(OC)c(OC)cc4C3C1)NCC2` (stereo unspecified), the TGI worked out at 31.1 µM in [1]; 44.6 µM in [3]; 37.5 µM in test [4]; 33.2 µM in test [12]; 29.8 µM in [5]; 30.1 µM in [7]. In addition, the TGI in [8] is 29.5 µM; in test [9] it was 28.5 µM; in [10], 28 µM; in test [11], 35.1 µM.
As for `C[n+]1c2ccc(Cl)cc2nc2cc(-c3ccccc3)ccc21`, the TGI in test [1] is 11.5 µM; in test [3] it was 37.7 µM; in test [4], 35.5 µM; in [5], 40.5 µM; in test [6] it was greater than 100 µM; in test [7], 66.8 µM. In addition, the TGI is 5.19 µM in test [8]; 34 µM in [13]; 43.8 µM in [9]; 80.1 µM in test [10]; 40.4 µM in test [11].
For the molecule `c1ccc(N=C(N2CCCC2)N(CCN2CCCC2)c2ccccc2)cc1`, the TGI in [1] is 35.6 µM; in test [2], greater than 100 µM; in test [3], greater than 100 µM; in test [5], greater than 100 µM; in test [6], greater than 100 µM; in test [7], greater than 100 µM. The TGI in test [8] was greater than 100 µM; in [9], greater than 100 µM; in test [10] it was 78 µM; in test [11], greater than 100 µM.
Turning to `Cc1ccc(-c2c(C#N)c(-c3ccc(C)cc3)n(NS(=O)(=O)c3ccccc3)c(=O)c2C#N)cc1`, the TGI in test [1], in test [3], in [4], in [12], in [5] and in test [6] was greater than 100 µM throughout. In addition, the TGI in [7] is greater than 100 µM; in [8], 64.7 µM; in test [13] it was 61.2 µM; in test [9], greater than 100 µM; in test [10], greater than 100 µM; in [11] it was greater than 100 µM.
For `O=C(Nc1ccccc1)c1cc(S(=O)(=O)NC2=NC(c3ccccc3)c3cc(Cl)ccc3N2)c(SSc2cc(Cl)c(C(=O)Nc3ccccc3)cc2S(=O)(=O)NC2=NC(c3ccccc3)c3cc(Cl)ccc3N2)cc1Cl` (stereo unspecified), the TGI in test [1], in test [2], in test [3], in test [4], in test [5] and in test [6] was greater than 100 µM each time. The TGI in test [7] was greater than 100 µM; in test [8], greater than 58.3 µM; in test [13], greater than 100 µM; in test [9] it was greater than 100 µM; in test [10] it was greater than 100 µM; in [11], greater than 100 µM.
Regarding `O=C1c2cccc3c2C(=O)c2c(cccc21)OCCOCCOCCOCCO3`, the TGI in [1], in [3], in [4], in [5], in [6] and in test [7] was greater than 100 µM throughout. Moreover, the TGI in test [8], in [13], in test [10] and in test [11] was greater than 100 µM each time.
`CCn1c(-c2ccccc2)cs/c1=N\C(P(=O)(O)O)P(=O)(O)O`: the TGI in test [1], in test [3], in test [4], in test [12], in test [6] and in test [7] was greater than 100 µM each time. The TGI in [8], in test [13], in [9], in [10] and in [11] was greater than 100 µM in each case.
As for `CC(C)Cc1ccc(C(C)C(=O)N2CCN(/C=C/c3ccccc3)CC2)cc1` (stereo unspecified), the TGI was found to be 32.2 µM in [1]; 32 µM in [4]; 31.8 µM in test [12]; 25.6 µM in [5]; 29.7 µM in test [6]; 29.3 µM in test [7]. Also, the TGI in [8] turned out to be 23.4 µM; in [13], 28.9 µM; in test [9], 32.1 µM; in test [10], 29.1 µM; in test [11], 30.4 µM.
Consider `CN(CCSCCN(C)C(=O)OC(C)(C)C)C(=O)OC(C)(C)C`, for which the TGI in [1], in test [3], in [4], in test [5], in test [6] and in test [7] was greater than 100 µM in each case. The TGI in test [8], in test [13], in [9], in test [10] and in test [11] was greater than 100 µM in each case.
On to `COc1ccc(/C=C2\CCNC2=O)cc1`, for which the TGI in [1], in test [3], in test [4], in test [12], in [5] and in test [6] was greater than 100 µM throughout. The TGI was greater than 100 µM in test [7]; greater than 100 µM in test [8]; greater than 100 µM in test [13]; greater than 100 µM in [9]; greater than 79.5 µM in test [10]; greater than 100 µM in test [11].
`CO[C@@]12C[C@@H](C)C3=CCC(C)=C3CC1=C(C)C(=O)O2`: the TGI in [1], in [3], in test [4], in test [12], in [5] and in [7] was greater than 100 µM throughout. For the same molecule, the TGI in test [8], in test [9], in test [10] and in test [11] was greater than 100 µM throughout.
Regarding `COc1cc(OC)c2nc(C)c(CCCl)c(Cl)c2c1`, the TGI in test [1], in test [3], in test [4], in test [12], in [5] and in test [6] was greater than 100 µM throughout. The TGI in test [7], in test [8], in test [13], in [9], in test [10] and in [11] was greater than 100 µM throughout.
`CCCC(=O)OCC1OC(n2ccc(N)nc2=O)C(OC(=O)CCC)C1OC(=O)CCC` (stereo unspecified): the TGI was greater than 100 µM in test [1]; greater than 100 µM in [3]; greater than 100 µM in [4]; greater than 100 µM in test [12]; greater than 100 µM in test [5]; 8.55 µM in test [6]. Also, the TGI in [7] is greater than 100 µM; in test [8], 66.9 µM; in test [13] it was greater than 100 µM; in [9] it was greater than 95.2 µM; in [10], greater than 100 µM; in [11], greater than 100 µM.
`CC1(C)/C(=N\NC(N)=O)C2CCC1C2` (stereo unspecified): the TGI in [1], in test [2], in test [3], in test [4], in test [5] and in test [6] was greater than 100 µM in each case. Further, the TGI in [7], in test [8], in [9], in [10] and in test [11] was greater than 100 µM each time.
On to `O=C(N/N=C(\c1ccccc1)c1ccccn1)NC1CCCCC1`, for which the TGI in test [1], in test [2], in test [3], in [4], in test [5] and in [6] was greater than 100 µM each time. Besides, the TGI in [7], in [8], in [9], in test [10] and in [11] was greater than 100 µM in each case.
Take `Cc1ccc(/C=N/Nc2cc(C)c3cccc(C)c3n2)s1`: the TGI in test [1] was 21.8 µM; in test [2], greater than 100 µM; in test [3], greater than 100 µM; in test [4], 64.2 µM; in test [5], greater than 100 µM; in test [6], 25.7 µM. Also, the TGI was 47.7 µM in [8]; 41.1 µM in [13]; greater than 100 µM in test [9]; greater than 100 µM in test [10]; 33.1 µM in test [11].
Regarding `C=CCc1c(O)c2c(c3oc(=O)cc(C)c13)CC(C)O2` (stereo unspecified), the TGI in test [1], in test [3], in [4], in [5], in test [6] and in test [7] was greater than 100 µM each time. Besides, the TGI in test [8], in test [13], in test [10] and in [11] was greater than 100 µM in each case.
Regarding `O=c1oc2ccccc2cc1-c1cc2ccccn2c1`, the TGI in [1], in [3], in test [4], in test [12], in test [5] and in test [6] was greater than 100 µM in each case. Further, the TGI in [7], in test [8], in test [9] and in test [10] was greater than 100 µM in each case.
